From the CheMixHub viscosity set

Test: xn = mol fraction of the nth substance listed

OCCCO + CS(C)=O
viscosity [mPa·s], 101 kPa
Conditions	293.15 K	298.15 K	303.15 K	308.15 K	313.15 K	318.15 K
x1 = 0.0513	2.47	2.13	2.03	1.84	1.7	1.61
x1 = 0.1024	2.88	2.59	2.32	2.09	1.89	1.78
x1 = 0.1534	3.26	2.95	2.63	2.35	2.14	2
x1 = 0.2043	3.74	3.35	2.99	2.67	2.4	2.24
x1 = 0.255	4.29	3.84	3.41	3.02	2.71	2.41
x1 = 0.3056	4.96	4.32	3.8	3.43	3.09	–
x1 = 0.356	5.73	5.04	4.44	3.87	3.47	–
x1 = 0.4064	6.64	5.81	5.05	4.42	3.92	–
x1 = 0.4566	7.69	6.73	5.82	5.05	4.46	–
x1 = 0.5066	9	7.73	6.65	5.81	5.08	–
x1 = 0.5565	10.6	9.09	7.76	6.67	5.81	–
x1 = 0.6063	12.5	10.6	9.02	7.72	6.7	–
x1 = 0.6556	14.7	12.5	10.6	8.96	7.67	–
x1 = 0.7055	17.6	14.8	12.4	10.4	8.88	–
x1 = 0.7549	21	17.6	14.6	12.2	10.3	–
x1 = 0.8042	25.2	21	17.3	14.3	12	–
x1 = 0.8533	30.4	25	20.5	16.8	14	–
x1 = 0.9024	36.5	29.8	24.2	19.7	16.4	–
x1 = 0.9512	43.8	35.5	28.5	23.1	19	–

NC=O + O
viscosity [mPa·s]
Conditions	101 kPa	101.33 kPa
293.15 K, x1 = 0.0753	1.098	–
293.15 K, x1 = 0.1519	1.195	–
293.15 K, x1 = 0.2309	1.318	–
293.15 K, x1 = 0.2959	1.446	–
293.15 K, x1 = 0.3852	1.603	–
298.15 K, x1 = 0.00687	0.921	–
298.15 K, x1 = 0.1	0.9871	–
298.15 K, x1 = 0.1001	1.044	–
298.15 K, x1 = 0.1998	1.161	–
298.15 K, x1 = 0.2	1.121	–
298.15 K, x1 = 0.212	1.182	–
298.15 K, x1 = 0.3	1.262	–
298.15 K, x1 = 0.3003	1.315	–
298.15 K, x1 = 0.304	1.283	–
298.15 K, x1 = 0.3989	1.463	–
298.15 K, x1 = 0.4	1.43	–
298.15 K, x1 = 0.4997	1.698	–
298.15 K, x1 = 0.5	1.631	–
298.15 K, x1 = 0.551	2.101	–
298.15 K, x1 = 0.5997	1.927	–
298.15 K, x1 = 0.6	1.868	–
298.15 K, x1 = 0.6029	2.275	–
298.15 K, x1 = 0.692	2.142	–
298.15 K, x1 = 0.7	2.138	–
298.15 K, x1 = 0.8	2.471	–
298.15 K, x1 = 0.8004	2.508	–
298.15 K, x1 = 0.9	2.881	–
298.15 K, x1 = 0.9013	2.906	–
303.15 K, x1 = 0.0964	–	0.8965
303.15 K, x1 = 0.1998	–	1.015
303.15 K, x1 = 0.2994	–	1.15
303.15 K, x1 = 0.3996	–	1.298
303.15 K, x1 = 0.4999	–	1.474
303.15 K, x1 = 0.5995	–	1.662
303.15 K, x1 = 0.6999	–	1.878
303.15 K, x1 = 0.8001	–	2.139
303.15 K, x1 = 0.9	–	2.432
308.15 K, x1 = 0.0964	–	0.8135
308.15 K, x1 = 0.1	0.8181	–
308.15 K, x1 = 0.1998	–	0.9213
308.15 K, x1 = 0.2	0.9244	–
308.15 K, x1 = 0.2994	–	1.047
308.15 K, x1 = 0.3	1.047	–
308.15 K, x1 = 0.3996	–	1.182
308.15 K, x1 = 0.4	1.183	–
308.15 K, x1 = 0.4999	–	1.34
308.15 K, x1 = 0.5	1.342	–
308.15 K, x1 = 0.5995	–	1.506
308.15 K, x1 = 0.6	1.523	–
308.15 K, x1 = 0.6999	–	1.697
308.15 K, x1 = 0.7	1.731	–
308.15 K, x1 = 0.8	2.002	–
308.15 K, x1 = 0.8001	–	1.926
308.15 K, x1 = 0.9	2.307	2.18
313.15 K, x1 = 0.0964	–	0.7424
313.15 K, x1 = 0.1001	0.734	–
313.15 K, x1 = 0.1998	0.835	0.8455
313.15 K, x1 = 0.2994	–	0.9584
313.15 K, x1 = 0.3003	0.949	–
313.15 K, x1 = 0.3989	1.091	–
313.15 K, x1 = 0.3996	–	1.08
313.15 K, x1 = 0.4997	1.23	–
313.15 K, x1 = 0.4999	–	1.221
313.15 K, x1 = 0.5995	–	1.373
313.15 K, x1 = 0.5997	1.402	–
313.15 K, x1 = 0.692	1.545	–
313.15 K, x1 = 0.6999	–	1.543
313.15 K, x1 = 0.8001	–	1.746
313.15 K, x1 = 0.8004	1.813	–
313.15 K, x1 = 0.9	–	1.967
313.15 K, x1 = 0.9013	2.102	–
318.15 K, x1 = 0.0964	–	0.6812
318.15 K, x1 = 0.1	0.6761	–
318.15 K, x1 = 0.1998	–	0.7768
318.15 K, x1 = 0.2	0.7811	–
318.15 K, x1 = 0.2994	–	0.8815
318.15 K, x1 = 0.3	0.8781	–
318.15 K, x1 = 0.3996	–	0.993
318.15 K, x1 = 0.4	0.9948	–
318.15 K, x1 = 0.4999	–	1.121
318.15 K, x1 = 0.5	1.12	–
318.15 K, x1 = 0.5995	–	1.259
318.15 K, x1 = 0.6	1.259	–
318.15 K, x1 = 0.6999	–	1.409
318.15 K, x1 = 0.7	1.42	–
318.15 K, x1 = 0.8	1.604	–
318.15 K, x1 = 0.8001	–	1.59
318.15 K, x1 = 0.9	1.812	1.788
323.15 K, x1 = 0.0964	–	0.6275
323.15 K, x1 = 0.1998	–	0.7165
323.15 K, x1 = 0.2994	–	0.8121
323.15 K, x1 = 0.3996	–	0.9187
323.15 K, x1 = 0.4999	–	1.032
323.15 K, x1 = 0.5995	–	1.158
323.15 K, x1 = 0.6999	–	1.292
323.15 K, x1 = 0.8001	–	1.457
323.15 K, x1 = 0.9	–	1.629

NC=O + OCCO
viscosity [mPa·s]
Conditions	293.15 K	298.15 K	303.15 K	308.15 K	313.15 K	318.15 K
100 kPa, x1 = 0.1003	16.54	13.52	11.1	–	–	–
100 kPa, x1 = 0.2002	13.55	10.99	9.12	–	–	–
100 kPa, x1 = 0.299	11.22	8.878	7.232	–	–	–
100 kPa, x1 = 0.3975	9.55	7.61	6.151	–	–	–
100 kPa, x1 = 0.5027	7.99	6.541	5.273	–	–	–
100 kPa, x1 = 0.6014	6.85	5.592	4.603	–	–	–
100 kPa, x1 = 0.7027	5.827	4.71	3.99	–	–	–
100 kPa, x1 = 0.7999	4.96	4.15	3.647	–	–	–
100 kPa, x1 = 0.9014	4.413	3.817	3.402	–	–	–
101 kPa, x1 = 0.0612	17.53	14.25	11.64	9.225	7.801	6.584
101 kPa, x1 = 0.1204	15.35	12.26	9.875	7.684	6.506	5.505
101 kPa, x1 = 0.1859	13.53	10.7	8.482	6.488	5.384	4.554
101 kPa, x1 = 0.3302	10.35	8.058	6.301	4.664	3.8	3.156
101 kPa, x1 = 0.4517	8.301	6.445	5.002	3.702	3.055	2.554
101 kPa, x1 = 0.5643	6.692	5.306	4.172	3.206	2.716	2.379
101 kPa, x1 = 0.6596	5.526	4.526	3.708	2.947	2.556	2.322
101 kPa, x1 = 0.7454	4.685	4.003	3.403	2.808	2.476	2.292
101 kPa, x1 = 0.8195	4.186	3.721	3.234	2.753	2.45	2.271
101 kPa, x1 = 0.8883	3.908	3.526	3.126	2.727	2.438	2.251
101 kPa, x1 = 0.9491	3.714	3.39	3.025	2.692	2.425	2.236
101 kPa, x2 = 0.0761	–	–	–	2.392	–	–
101 kPa, x2 = 0.1538	–	–	–	2.439	–	–
101 kPa, x2 = 0.2311	–	–	–	2.487	–	–
101 kPa, x2 = 0.3245	–	–	–	2.636	–	–
101 kPa, x2 = 0.4125	–	–	–	2.996	–	–
101 kPa, x2 = 0.5236	–	–	–	4.026	–	–
101 kPa, x2 = 0.6337	–	–	–	5.164	–	–
101 kPa, x2 = 0.7468	–	–	–	6.594	–	–
101 kPa, x2 = 0.8596	–	–	–	8.193	–	–
